ChEMBL document CHEMBL1201862, “PubChem BioAssay data set” (2004)
Counter-ions that a name gives are not always drawn.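 These data come from cells grown in 96-well plates and exposed to compound for 48 hours at five concentrations. At the GI50, growth is halved.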 Activity calls are given as the source filed them. Cut-off read from the data, not from the text of the source: active = GI50 up to about 1.1 µM and inactive = higher.

What was measured:
Test in all cases: DTP human tumour cell line panel, 48 h
OVCAR-8 = system: OVCAR-8
ACHN = system: ACHN
A549 = system: A549
CAKI-1 = system: CAKI-1
KM12 = system: KM12
HCC 2998 = system: HCC 2998
NCI-H460 = system: NCI-H460
HOP-62 = system: HOP-62
786-0 = system: 786-0
NCI-H522 = system: NCI-H522
SN12C = system: SN12C
SK-MEL-5 = system: SK-MEL-5
SF-268 = system: SF-268
UO-31 = system: UO-31
MOLT-4 = system: MOLT-4
U-251 = system: U-251
T47D = system: T47D
OVCAR-5 = system: OVCAR-5
PC-3 = system: PC-3
NCI-H226 = system: NCI-H226

Measured: GI50

O=C(C=P(c1ccccc1)(c1ccccc1)c1ccccc1)c1ccc(-c2cccs2)cc1
inactive: OVCAR-8 4.86 µM | ACHN 3.73 µM | A549 3.17 µM | CAKI-1 4.91 µM | KM12 4.13 µM | HCC 2998 2.83 µM | NCI-H460 3.97 µM | HOP-62 6.64 µM | 786-0 4.75 µM | NCI-H522 3.35 µM | SN12C 4.98 µM | SK-MEL-5 2.17 µM | SF-268 12.9 µM | UO-31 3.48 µM | MOLT-4 2.15 µM | U-251 3.85 µM | T47D 2.33 µM | OVCAR-5 5 µM | PC-3 4.12 µM | NCI-H226 2.86 µM

O=C1O[C@]2(c3ccccc3)C(c3ccccc3)=C[C@]2(C(=O)c2ccccc2)C1=O
inactive: OVCAR-8 29.8 µM | ACHN 35.2 µM | A549 37.2 µM | CAKI-1 36.9 µM | KM12 35.8 µM | HCC 2998 20.3 µM | NCI-H460 27.1 µM | HOP-62 34 µM | 786-0 26.2 µM | NCI-H522 21.1 µM | SN12C 33.4 µM | SK-MEL-5 31.8 µM | SF-268 38 µM | UO-31 27.9 µM | MOLT-4 4.02 µM | U-251 31.6 µM | T47D 1.12 µM | OVCAR-5 > 100 µM | PC-3 39.1 µM | NCI-H226 29.9 µM

Nc1nc(Cl)cc(NCC2(O)CC2)n1
inactive: OVCAR-8 > 100 µM | ACHN > 100 µM | A549 > 100 µM | CAKI-1 > 100 µM | KM12 > 100 µM | HCC 2998 > 100 µM | NCI-H460 > 100 µM | HOP-62 > 100 µM | 786-0 > 100 µM | NCI-H522 > 100 µM | SN12C > 100 µM | SK-MEL-5 > 100 µM | SF-268 > 100 µM | UO-31 > 100 µM | MOLT-4 > 100 µM | U-251 > 100 µM | T47D > 100 µM | OVCAR-5 > 100 µM | PC-3 > 100 µM | NCI-H226 > 100 µM

OC(Cc1cc(CC(O)(C(F)(F)F)C(F)(F)F)nc(CC(O)(C(F)(F)F)C(F)(F)F)c1)(C(F)(F)F)C(F)(F)F
active: ACHN 0.681 µM | CAKI-1 0.321 µM | KM12 0.482 µM | NCI-H460 0.358 µM | U-251 1 µM | T47D 0.755 µM | PC-3 0.323 µM
inactive: OVCAR-8 1.33 µM | A549 1.4 µM | HCC 2998 1.83 µM | HOP-62 1.73 µM | 786-0 1.35 µM | NCI-H522 3.06 µM | SN12C 2.2 µM | SK-MEL-5 1.51 µM | SF-268 1.88 µM | MOLT-4 3.85 µM | OVCAR-5 3.43 µM | NCI-H226 2.75 µM

COc1nc(C)nc2sc3c(c12)CCCC3
inactive: OVCAR-8 > 100 µM | ACHN > 100 µM | CAKI-1 > 100 µM | KM12 > 100 µM | HCC 2998 > 100 µM | NCI-H460 > 100 µM | HOP-62 > 100 µM | 786-0 > 100 µM | NCI-H522 > 100 µM | SN12C > 100 µM | SK-MEL-5 > 100 µM | SF-268 > 100 µM | UO-31 89.9 µM | MOLT-4 > 100 µM | U-251 > 100 µM | T47D > 100 µM | OVCAR-5 > 100 µM | PC-3 > 100 µM | NCI-H226 > 100 µM

CCCCCCCCCCCCOP(=O)(O)OCC(N)C(=O)O (stereo unspecified)
inactive: OVCAR-8 38.5 µM | ACHN 34.1 µM | A549 24.7 µM | CAKI-1 30.1 µM | HCC 2998 29.8 µM | NCI-H460 13.6 µM | HOP-62 15.4 µM | 786-0 30.2 µM | NCI-H522 31.8 µM | SN12C 22.1 µM | SK-MEL-5 23.4 µM | SF-268 26.8 µM | UO-31 15.5 µM | MOLT-4 11.2 µM | U-251 11.9 µM | T47D > 100 µM | OVCAR-5 40.8 µM | PC-3 15.3 µM | NCI-H226 19.7 µM

COc1ccc2nc3c(nc2c1)C(C)(C)C=C3c1ccc(Br)cc1
inactive: OVCAR-8 > 100 µM | ACHN > 100 µM | A549 > 100 µM | CAKI-1 > 100 µM | KM12 > 100 µM | HCC 2998 > 100 µM | NCI-H460 > 100 µM | HOP-62 > 100 µM | 786-0 > 100 µM | NCI-H522 > 100 µM | SN12C > 100 µM | SK-MEL-5 > 100 µM | SF-268 > 100 µM | MOLT-4 > 100 µM | U-251 97.9 µM | T47D > 100 µM | OVCAR-5 > 100 µM | PC-3 > 100 µM | NCI-H226 > 100 µM

CC(C)(C)c1nc2c(o1)C(=O)c1ccccc1C2=O
inactive: ACHN 2.28 µM | A549 3.53 µM | CAKI-1 2.78 µM | KM12 2.75 µM | HCC 2998 4.25 µM | NCI-H460 3.82 µM | HOP-62 3.37 µM | 786-0 2.75 µM | NCI-H522 1.43 µM | SF-268 2.47 µM | UO-31 2.81 µM | MOLT-4 1.76 µM | U-251 1.72 µM | OVCAR-5 2.38 µM | NCI-H226 3.3 µM
active: OVCAR-8 0.92 µM | SN12C 0.959 µM | SK-MEL-5 0.437 µM | T47D 0.627 µM | PC-3 0.505 µM

CC(C)(C)C(=O)OC(N)/C=C/c1ccccc1 (stereo unspecified)
inactive: OVCAR-8 > 100 µM | ACHN > 100 µM | A549 > 100 µM | CAKI-1 > 100 µM | KM12 > 100 µM | HCC 2998 > 100 µM | NCI-H460 > 100 µM | HOP-62 > 100 µM | 786-0 > 100 µM | NCI-H522 > 100 µM | SN12C > 100 µM | SK-MEL-5 > 100 µM | UO-31 > 100 µM | MOLT-4 > 100 µM | U-251 > 100 µM | T47D > 100 µM | OVCAR-5 > 100 µM | PC-3 > 100 µM | NCI-H226 > 100 µM

Cc1ccc2c(=O)[nH]sc2c1
inactive: OVCAR-8 17.3 µM | ACHN 9.29 µM | A549 19 µM | CAKI-1 5.4 µM | HCC 2998 21.2 µM | NCI-H460 53.3 µM | HOP-62 19.5 µM | 786-0 3.72 µM | NCI-H522 2.38 µM | SN12C 7.83 µM | SK-MEL-5 12.9 µM | SF-268 19.9 µM | MOLT-4 3.98 µM | U-251 14.8 µM | T47D 14.8 µM | OVCAR-5 94 µM | PC-3 15.7 µM | NCI-H226 19.7 µM

CC(C)C(C/C=C1/CC(CO)(COC(=O)CC(C(C)C)C(C)C)OC1=O)C(C)C (stereo unspecified)
inactive: OVCAR-8 16.1 µM | ACHN 1.79 µM | CAKI-1 2.15 µM | KM12 6.82 µM | HCC 2998 2.89 µM | NCI-H460 2.44 µM | HOP-62 1.34 µM | 786-0 5.61 µM | NCI-H522 12.9 µM | SN12C 14.2 µM | SK-MEL-5 10.4 µM | SF-268 10.6 µM | UO-31 2.86 µM | U-251 11.6 µM | OVCAR-5 9.42 µM | PC-3 4.85 µM | NCI-H226 8.93 µM
active: A549 0.298 µM | T47D 0.982 µM

CCc1nc(N)nc(N)c1-c1ccc(N2CCNCC2)cc1
inactive: OVCAR-8 66.5 µM | ACHN 51.3 µM | A549 54.3 µM | CAKI-1 > 97.3 µM | KM12 > 95.9 µM | HCC 2998 42.8 µM | NCI-H460 33.1 µM | HOP-62 55.8 µM | 786-0 60.5 µM | NCI-H522 55.1 µM | SN12C 87.7 µM | SK-MEL-5 19.8 µM | SF-268 84.7 µM | UO-31 > 100 µM | MOLT-4 41 µM | U-251 88.7 µM | T47D 57.7 µM | OVCAR-5 > 100 µM | PC-3 49.3 µM | NCI-H226 > 100 µM

Cc1[nH]n(-c2nc3c(c(=O)[nH]2)CCC3)c(=O)c1CCO
inactive: OVCAR-8 > 100 µM | ACHN > 100 µM | A549 > 100 µM | CAKI-1 > 100 µM | KM12 > 100 µM | HCC 2998 > 100 µM | NCI-H460 > 100 µM | HOP-62 > 100 µM | 786-0 > 100 µM | NCI-H522 > 100 µM | SN12C > 100 µM | SK-MEL-5 > 100 µM | SF-268 > 100 µM | UO-31 > 100 µM | MOLT-4 > 100 µM | U-251 > 100 µM | T47D > 100 µM | OVCAR-5 > 100 µM | PC-3 > 100 µM | NCI-H226 > 100 µM

C=C1C[C@@H]2CC[C@@]34C[C@H]5O[C@H]6[C@@H](O3)[C@H]3O[C@H](CC[C@@H]3O[C@H]6[C@H]5O4)CC(=O)C[C@@H]3[C@@H](OC)[C@@H](C[C@H](O)CN)O[C@H]3C[C@H]3O[C@@H](CC[C@@H]1O2)C[C@@H](C)C3=C [ERIBULIN MESYLATE]
active: OVCAR-8 0.00598 µM | ACHN 0.0556 µM | A549 0.00197 µM | CAKI-1 0.0179 µM | KM12 0.000326 µM | HCC 2998 0.00201 µM | NCI-H460 0.00172 µM | HOP-62 0.00412 µM | 786-0 0.00328 µM | NCI-H522 0.00025 µM | SN12C 0.00361 µM | SK-MEL-5 0.000877 µM | SF-268 0.00267 µM | UO-31 0.126 µM | MOLT-4 0.000791 µM | U-251 0.00134 µM | T47D < 0.0001 µM | PC-3 0.00037 µM | NCI-H226 0.000522 µM
